Key:
Type in all cases: in vivo, mouse
[1] = test system: colitis in Scid mice injected with cells of IL-10 deficient Balb/c mice; assay: Therapeutic effect on inflammatory bowel disease: colon weight in cell-transfer colitis mice fed experimental diet; set-up: Colon weight Mean: unit not given here; settings: three weeks after cell transfer
Method: Balb/c background IL-10 deficient mice were established from C57BL/6 background IL-10 deficient mice by back-crossing for seventh generations. […] Spleen, mesenteric lymph nodes and sacral lymph nodes were collected from the IL-10 gene-deficient Balb/c mice (male) which had developed the colitis detected by observing the diarrhea symptoms. After preparing single cell suspensions, the cells at about 1×10^7 were injected intraperitoneally to Scid mice which were immunodeficiency mice (hereinafter the Scid mouse injected IP was referred to as an “experiment mouse”). Subsequently, a chow was changed to an experimental diet. At a time point three weeks after cell transfer, the mice were killed, the colon was collected, the intestinal contents were washed out, and its weight was measured. A percentage of inhibiting a weight gain of the colon was calculated by the following formula. Percentage of inhibiting a weight gain of colon=[1−(Colon weight in target group−Colon weight in cell transfer group)/(Colon weight in standard chow group−Colon weight in cell transfer group)]×100(%)
An amino acid mixture A is composed of the following amino acids (% by weight is represented in terms of free amino acid).

[2] = test system: Reg3γ mRNA; assay: Quantitative RT-PCR of colon Reg3γ mRNA; settings: 5% in standard chow, colon after three weeks
Method: (§1) The experimental diet obtained by mixing the amino acids shown in Table 6 with the standard chow was given to the experiment mice, and after three weeks, the colon was removed. A colon sample was homogenized with 500 μL of Isogen (Nippon Gene). The homogenate mixed with 100 μL, of chloroform was centrifuged at 15,000 rpm at 4° C. and an aqueous layer was collected. An equivalent amount of 2-propanol was added thereto, which was then centrifuged at 15,000 rpm at 4° C. A resulting pellet was washed with 70% (v/v) ethanol, dried in air and dissolved in water treated with DEPC.
(§2) All reagents used were from Invitrogen. […]
(§3) A gene expression assay based on PCR was performed using SYBR Green PCR Master Mix (Applied Biosystems) and ABI PRISM 7700 System. SYBR Green PCR Master Mix comprises SYBR Green and heat resistant DNA polymerase, and detects fluorescence generated by specifically binding SYBR Green to a double strand DNA amplified by PCR using ABI PRISM 7700 System. Gene expression amounts of the samples can be compared by comparing the numbers of PCR cycles at which a significant fluorescence signal is detected for the first time. The cDNA corresponding to 10 ng of total RNA was used as a template of the quantitative PCR, and n=2 or more per sample of measurements were performed. […] The sequences of the primers used for the quantitative RT-PCR are as follows. […]

[3] = test system: Groα mRNA; assay: Quantitative RT-PCR of colon Groα mRNA; settings: 5% in standard chow, colon after three weeks
Method: as §1, §2, §3

[4] = test system: TNF-α mRNA; assay: Inhibitory effect on TNF-α production: quantitative RT-PCR of colon TNF-α mRNA; settings: colon after three weeks
Method: as §1
All reagents used were from Invitrogen. 0.5 μg Of total RNA and 0.5 μg of oligo (dT) were dissolved in 12 μL of DEPC-treated water, heated at 70° C. for 10 minutes, and cooled on ice for one minute. Subsequently, 4 μL of 5×1st strand buffer, 1 μL of 10 mM dNTP mix and 2 μL of 100 mM DTT were added thereto. The mixture was reacted at 42° C. for 5 minutes. 1 μL (200 U) of SuperScriptII was added, and the mixture was reacted at 42° C. for 50 minutes and 70° C. for 15 minutes.
A gene expression assay based on PCR was performed using SYBR Green PCR Master Mix (Applied Biosystems) and ABI PRISM 7700 System. SYBR Green PCR Master Mix comprises SYBR Green and heat resistant DNA polymerase, and detects fluorescence generated by specifically binding SYBR Green to a double strand DNA amplified by PCR using ABI PRISM 7700 System. Gene expression amounts of the samples can be compared by comparing the numbers of PCR cycles at which a significant fluorescence signal is detected for the first time. The cDNA corresponding to 10 ng of total RNA was used as a template of the quantitative PCR, and n=2 or more per sample of measurements were performed. A forward primer and a reverse primer at each 7.5 pmol of each gene were added to 7.5 μL of SYBR Green PCR Master Mix (Applied Biosystems), and the total volume was made to be 15 μL with water. The PCR was performed by 40 cycles of the reaction at 95° C. for 10 seconds, 60° C. for 30 seconds and 72° C. for 30 seconds after reacting at 95° C. for 10 minutes. The sequences of the primers used for the quantitative RT-PCR are as follows.
An inhibitory rate of TNF-α mRNA expression was calculated from the following formula. Inhibitory rate of TNF-α mRNA expression=[1−Relative amount of TNF-α mRNA expression in target group−Relative amount of TNF-α mRNA expression in cell transfer group)/(Relative amount of TNF-α mRNA expression in standard chow group−Relative amount of TNF-α mRNA expression in cell transfer group)]×100(%)

[5] = Mus musculus, po, 504 h, 5% in standard chow, read-out: Rate of inhibiting weight gain of colon (%)

NC(=O)CC[C@H](N)C(=O)O [Example 1, glutamine]
Colon weight Mean ([1]; 5% in standard chow): 530.5
inhibition in vivo at 5 % [1, 5]: 22.5%

NCCCC[C@H](N)C(=O)O [Example 2, lysine]
Colon weight Mean ([1]; 5% in standard chow): 392.8
inhibition in vivo at 5 % [1, 5]: 48.5%

N[C@@H](Cc1c[nH]cn1)C(=O)O [Example 3, histidine]
Inhibitory rate of Reg3γ mRNA Expression (%) [2]: 84%
Inhibitory rate of Groα mRNA Expression (%) [3]: 70%
Colon weight Mean ([1]; 5% in standard chow): 429.0
inhibition in vivo at 5 % [1, 5]: 37.8%
Inhibitory rate of TNF-α mRNA expression (%) ([4]; 5% in standard chow): 54%

N[C@@H](CS)C(=O)O [Example 4, cysteine]
inhibition in vivo at 5 % [1, 5]: 42.1%

NCC(=O)O [Example 5, glycine]
Colon weight Mean ([1]; 5% in standard chow): 437.1
Rate of inhibiting weight gain of colon (%) ([1]; 5% in standard chow): 37.4%

N[C@@H](Cc1c[nH]c2ccccc12)C(=O)O [Example 6, tryptophan]
Colon weight Mean ([1]; 2% in standard chow): 425.6
inhibition in vivo at 2 % ([1]; Mus musculus, po, 504 h, 2% in standard chow, read-out: Rate of inhibiting weight gain of colon (%)): 41.9%
inhibition in vivo at 5 % [1, 5]: 92.7%
Inhibitory rate of TNF-α mRNA expression (%) ([4]; 2% in standard chow): 33%
Inhibitory rate of TNF-α mRNA expression (%) ([4]; 5% in standard chow): 49%

CSCC[C@H](N)C(=O)O [Example 7, methionine]
Colon weight Mean ([1]; 5% in standard chow): 307.7
inhibition in vivo at 5 % [1, 5]: 73.1%

N[C@@H](Cc1ccccc1)C(=O)O [Example 12, phenylalanine]
Colon weight Mean ([1]; 5% in standard chow): 392.8
inhibition in vivo at 5 % [1, 5]: 48.5%
Inhibitory rate of TNF-α mRNA expression (%) ([4]; 5% in standard chow): 84%

C[C@@H](O)[C@H](N)C(=O)O [Example 13, threonine]
Colon weight Mean ([1]; 5% in standard chow): 468.2
inhibition in vivo at 5 % [1, 5]: 28.8%
